Assay results taken from US20220072149A1, “BIOLOGICALLY ACTIVE CLUSTER OF MOLECULES” (priority 2018, published 2022).

Experiments:
HER14 cells = assay: viability assay with HER14 cells (MTT); type: cell-based; conditions: 0.1 nM dianthin-EGF, 72 h
Method: To test the efficacy of the invention, we conducted a viability assay with HER14 cells. These cells are fibroblasts stably transfected with the human epidermal growth factor receptor and therefore target cells for the targeted toxin dianthin-EGF. HER14 cells (2,000 cells/100 μL/well) were seeded into wells of 96-well-cell culture plates and incubated for 24 h in DMEM medium supplemented with 10% fetal calf serum and 1% penicillin/streptomycin at 37° C., 5% CO2 and 98% humidity. The different test substances (see results and FIG. 21) were then added in triplicates in a volume of 25 μL and supplemented with further 25 μL of medium. After an incubation of 72 h, 30 μL 3-(4,5-dimethylthiazol-2-yl)-2,5-diphenyltetrazolium bromide (0.5 mg/mL in water) was added per well and incubated for 2 h. Thereafter, the medium was carefully removed and replaced by an aqueous solution containing 10% (v/v) isopropanol, 5% (w/v) sodium dodecyl sulfate and 400 mM HCl, and incubated for 5 min. Solubilized formazan was photometrically quantitated at […] in a microplate reader (Spectra MAX 340 PC, Molecular Devices, Sunnyvale, Calif., USA). Untreated cells were normalized to 1 and all samples referred to the untreated control. Significance was determined by unpaired two-sample t-tests.

HeLa cells = assay: HeLa cell viability assay (MTS): inhibition of SO1861-mediated endosomal escape by polymeric structures; type: cell-based, human; conditions: […] dianthin-EGF + SO1861 curve, PAMAM 500 nM, chloroquine 500 nM, dendron 667 nM, 72 hr
Method: HeLa cells were seeded in DMEM (PAN-Biotech GmbH) supplemented with 10% fetal bovine serum (PAN-Biotech GmbH) and 1% penicillin/streptomycin (PAN-Biotech GmbH), in a 96 well plate at 5,000 c/w in 100 μL/well and incubated overnight at 37° C. and 5% CO2. The next day 20× concentrated stocks of the PAMAM, PAMAM-conjugates, G4-dendron (prepared in Example 3) or chloroquine (Sigma Aldrich) samples were prepared in DMEM. The media was removed from the cell culture plate and replaced by […] culture media, followed by the addition of 10 μL sample/well (from the 20× concentrated stocks) and a 45 min incubation at 37° C. […] Followed by 15 sec sonication and a brief re-heating at 50° C. for 1 min, while shaking at 1,250 rpm. Subsequently a serial dilution of SO1861 was prepared in PBS.
As control for the inhibition of endosomal acidification chloroquine was used.

Structure (SMILES) | effect on the toxicity of dianthin-EGF (HER14 cells) | inhibition of SO1861-mediated endosomal escape of the targeted toxin and subsequent cell killing (HeLa cells)
C[C@@H]1O[C@@H](O[C@H]2[C@H](OC(=O)[C@]34CCC(C)(C)C[C@H]3C3=CC[C@@H]5[C@@]6(C)CC[C@H](O[C@H]7O[C@H](C(=O)O)[C@@H](O)[C@H](O[C@@H]8OC[C@@H](O)[C@H](O)[C@H]8O)[C@H]7O[C@@H]7O[C@H](CO)[C@H](O)[C@H](O)[C@H]7O)[C@@](C)(C=O)[C@@H]6CC[C@@]5(C)[C@]3(C)CC4)O[C@H](C)[C@H](O[C@@H]3O[C@H](C)[C@@H](O)[C@H](O)[C@H]3O)[C@@H]2O)[C@H](O)[C@H](O)[C@H]1O[C@@H]1OC[C@@H](O)[C@H](O[C@@H]2OC[C@@H](O)[C@H](O)[C@H]2O)[C@H]1O [SA1641] | death of al cells | –
CCN(CC)CCCC(C)Nc1ccnc2cc(Cl)ccc12 (centres unmarked) [chloroquine] | – | inhibit
